# Measurements from publication PMC6770728, “CYP2D6 Genotype Predicts Plasma Concentrations of Tamoxifen Metabolites in Ethiopian Breast Cancer Patients” (Cancers, 2019).
# Where two headings read alike, the source gives them in different places.
# Columns and labels:
# [1] = Plasma concentrations of tamoxifen and its metabolites by LC-MS/MS in breast cancer patients on adjuvant tamoxifen; type: in vivo, human; conditions: for Plasma concentration (median + IQR): 81 Ethiopian breast cancer patients, tamoxifen 20 mg/day for at least three months; for MR E/NDM: listed as E
# Method: This study was conducted at the radiotherapy center of Tikur Anbessa specialized hospital, Addis Ababa University, Addis Ababa, Ethiopia. A total of 81 female breast cancer patients who were on adjuvant tamoxifen were enrolled. These patients had completed a full course of chemotherapy and were on tamoxifen 20 mg/day for at least three months. None of the study participants were taking any known CYP2D6 enzyme inhibitor as co-medication. The study protocol was approved by the Institutional Review Board (IRB) of the College of Health Sciences, Addis Ababa University (AAU) (Ref No: 011/16/2016), the Armauer Hansen Research Institute Ethical Review Committee (AAERC) (Ref No: PO26/16) and the Ethiopian National Research Ethics Review Committee (NRERC) (Ref No: 3.10/235/2017). Signed informed consent was obtained from individual study participants prior to study enrolment. Patients’ demographic, clinical and tumor characteristics including age, menopausal status, performance status, weight, height, body mass index (BMI), histologic type of the tumor, degree of differentiation, tumor size, lymph node involvement, hormone receptor status and co-morbidity status were collected.
# Blood samples were collected in EDTA tube, centrifuged at 2500 g for 10 minutes, and the separated plasma was stored at −80 °C until analysis. Tamoxifen (Tam) and its major metabolites N-desmethyltamoxifen (NDM), (Z)-4-hydroxytamoxifen (4-HT), and (Z)-endoxifen (E) were quantified in the TDM Laboratory, Department of Clinical Pharmacology, Karolinska Institutet (Stockholm, Sweden), by ultra-high-performance liquid chromatography (UHPLC) followed by electrospray tandem mass spectrometry (LC-MS/MS). Briefly, 400 µL internal standard solution (containing 2 ng/mL of Z/E-endoxifen-d5, and 4-OH-tamoxifen-d5, and 20 ng/mL of N-desmethyl-tamoxifen-d5, and tamoxifen-d5) was added to 200 µL of thawed plasma samples and mixed for 10 minutes in a micro plate shaker (Vx-2400 Multitube mixer, Troemner, Philadelphia, USA), followed by centrifugation at 3400 rpm at 4 °C for 10 min. The supernatant was then transferred to new glass vial and evaporated to dryness using vacuum centrifuge. The residue was dissolved in 50 µL methanol over a microplate shaker for 10 min and the resulting solution was then centrifuged at 3400 rpm for 10 min at 4 °C. Ten microliter (10 µL) of the solution was injected into the LC system (Dionex Ultimate 3000, UHPLC focused, Thermo Scientific, California, USA) coupled with a mass spectrometer (TSQ Quantiva, Thermo Scientific). Separation occurred on an Accucore C-18 column (150 × 2.1 mm, Thermo Scientific). The mobile phase for gradient elution consisted of solution A (10 mmol/L ammonium formate with 0.005% formic acid in water) and solution B (10 mmol/L ammonium formate with 0.005% formic acid in 99% methanol). The LC conditions were: column oven temperature of 40 °C, flow rate of 0.50 mL/min, autosampler temperature of 10 °C. Detection was in positive ion mode using electrospray ionization and monitored using Trace Finder software (Thermo Scientific). Under this condition, the retention times were 3.25, 3.26, 3.38, 4.03, and 4.11 min for E-endoxifen, Z-endoxifen, 4-OH-tamoxifen, N-desmethyltamoxifen, and tamoxifen, respectively. Calibration curves were constructed by plotting the ratio of the area of the compound and the internal standard against the standard analyte concentration. Three quality control (QC) samples involving, (i) low-level QC [QCL] (0.3 ng/mL of E and 4-HT and 3 ng/mL of NDM and Tam, (ii) mid-level QC [QCM] (8 ng/mL of E and 4-HT and 80 ng/mL of NDM and Tam), and (iii) high level QC [QCH] (80 ng/mL of E and 4-HT and 800 ng/mL of NDM and Tam) were also included at each run.
# Descriptive statistics were computed to explore the demographic characteristics, clinical profiles, genotype frequencies of participants. Chi-square test was used to compare the observed and expected genotype frequency according to Hardy–Weinberg equilibrium. […]
# estrogen receptor (ER) = system: estrogen receptor (ER); parameters: method as in PMID 21451508; conditions: endoxifen level 13 nM; cited from earlier work
# [2] = parameters: method as in PMID 21430657; conditions: endoxifen concentration >5.97 ng/mL; cited from earlier work
# [3] = cited from earlier work
# [4] = UGT2B15 c.1568A>C (rs4148269) wild type genotype
# [5] = ABCB1 c.4036A>G (rs3842) wild type genotype
# [6] = carriers of the G allele for ABCB1 c.4036A>G (rs3842)
smiles,measurement,setting,value
"CC/C(=C(\c1ccccc1)c1ccc(OCCNC)cc1)c1ccccc1 [N-Desmethyl-tamoxifen, N-desmethyltamoxifen]",Plasma concentration (median + IQR),[1],257 (185.5–343) ng/mL
same,"Metabolic ratio of N-desmethyl-tamoxifen to tamoxifen, MR NDM/Tam (median + IQR)","[1]; human, in vivo",1.81 (1.51–2.26)
CC/C(=C(\c1ccccc1)c1ccc(OCCN(C)C)cc1)c1ccccc1 [Tamoxifen],Plasma concentration (median + IQR),[1],138 (105–200.5) ng/mL
same,Median plasma concentration,[1]; [4],173.8 ng/mL
same,Median plasma concentration,[1]; patients with at least one variant allele for UGT2B15 c.1568A>C (rs4148269),125.9 ng/mL
same,Plasma tamoxifen concentration of all included patients,[1]; the 81 patients included in the analysis,> 150 nM
"CC/C(=C(\c1ccc(O)cc1)c1ccc(OCCNC)cc1)c1ccccc1 [Z-Endoxifen, (Z)-endoxifen]",Median endoxifen concentration relative to 4-HT,[1]; 7.94 vs 3.04 ng/mL,2.6 times
same,Plasma concentration (median + IQR),[1],7.94 (4.68–13.75) ng/mL
same,Plasma concentration (median + IQR),[1]; listed as endoxifen,7.94 ng/mL
same,"Metabolic ratio of endoxifen to 4-hydroxy-tamoxifen, MR E/4-HT (median + IQR)","[1]; 81 patients, plasma",2.85 (2.10–3.73)
same,"Metabolic ratio of endoxifen to N-desmethyl-tamoxifen, MR E/NDM (median + IQR)","[1]; 81 patients, plasma",0.038 (0.021–0.06)
same,MR E/4-HT,[1]; [5],3.02
same,MR E/NDM,[1]; [5],0.041
same,Patients with low endoxifen concentration (<5.9 ng/mL) / patients in group,[1]; CYP2D6 IM/IM diplotype,1/1
same,Patients with low endoxifen concentration (<5.9 ng/mL) / patients in group,[1]; CYP2D6 IM/PM diplotype,3/3
same,Proportion of patients with low endoxifen concentration (<5.9 ng/mL),[1]; CYP2D6 NM/IM diplotype (5/12),41.7%
same,Proportion of patients with low endoxifen concentration (<5.9 ng/mL),[1]; CYP2D6 NM/NM diplotype (11/35),31.4%
same,Proportion of patients with low endoxifen concentration (<5.9 ng/mL),[1]; CYP2D6 NM/PM diplotype (6/9),66.7%
same,Patients with low endoxifen concentration (<5.9 ng/mL) / patients in group,[1]; CYP2D6 PM/PM diplotype,1/1
same,Median E/4-HT ratio,[1]; [4],2.06
same,Proportion of patients with low endoxifen concentration (<5.9 ng/mL),[1]; all 81 patients,35.8%
same,Median E/4-HT ratio,[1]; carriers of C allele for UGT2B15 c.1568A>C (rs4148269),2.96
same,MR E/4-HT,[1]; [6],2.52
same,MR E/NDM,[1]; [6],0.022
same,Occupancy of the estrogen receptor (ER) in vitro,estrogen receptor (ER),90%
same,Lower risk of additional breast cancer events,[2],30%
same,Proportion of PMs still able to generate therapeutic concentrations of endoxifen,"[3]; CYP2D6 PMs, threshold 5.9 ng/mL",24%
same,Proportion of CYP2D6 PMs below endoxifen level of 13 nM,[3]; CYP2D6 poor metabolizers,93%
same,Endoxifen plasma concentration lower than without CYP2D6 inhibitors,[3]; IMs on CYP2D6 inhibitors vs IMs not on CYP2D6 inhibitors,38%
same,Endoxifen plasma concentration lower than without CYP2D6 inhibitors,[3]; NMs taking CYP2D6 inhibitors vs NMs not on CYP2D6 inhibitors,58%
same,Proportion of patients unable to attain therapeutic threshold for endoxifen,[3]; Sweden,30%
same,Proportion of patients unable to attain therapeutic threshold for endoxifen,[3]; U.S.,20%
"CC/C(=C(\c1ccc(O)cc1)c1ccc(OCCN(C)C)cc1)c1ccccc1 [4-Hydroxy-tamoxifen, 4-hydroxy-tamoxifen]",Plasma concentration (median + IQR),[1],3.04 (2.15–4.0) ng/mL
same,Plasma concentration (median + IQR),[1]; listed as 4-HT,3.04 ng/mL
same,"Metabolic ratio of 4-Hydroxy-tamoxifen to tamoxifen, MR 4-HT/Tam (median + IQR)","[1]; 81 patients, plasma",0.022 (0.016–0.029)
